The values below are quoted from earlier work in patent US8445438B2, “Compositions comprising capture peptides for A β-amyloid peptide” (Recombinant Technologies LLC, priority 2008, dated 2013).

The series concerns Aβ. To be noted: peptide based on the GxFxGxF scaffold.
Sequence of Aβ (P05067 672-711 limits assumed): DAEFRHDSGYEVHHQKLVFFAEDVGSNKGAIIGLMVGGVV

In the case of RGTWEGKW (listed as Homo sapiens), the cellular toxicity result is “reduce cellular toxicity”.
